Data taken from patent US4997829A, “Penem compounds, and use thereof” (Suntory Limited, priority 1985, dated 1991).
Read-outs that look alike come from different tables or passages of the source.

Experiments:
[1] = Acute toxicity test; assay type: in vivo; details: mouse, in vivo, iv, route not restated (follows intravenous paragraph), read-out: 50% lethal dose (LD50)
Experimental: Out of the novel compounds obtained according to this invention, SUN 4435 and SUN 5555 were selected to carry out an acute toxicity test. As an animal, there were employed ICR strain mice (4-weeks aged), which were treated by oral and intravenous application of the compounds.

[2] = tested on: S. aureus Smith; experiment: Therapeutic effect against experimental infection of mice (survival); assay type: in vivo, S. aureus; ICR strain male mice
Experimental: (§1) Out of the novel compounds obtained according to this invention, SUN 4435 was selected to carry out a treatment experiment with infected animals. As an animal, there were employed ICR strain male mice (5-weeks aged, with a body weight of 23 to 27 g), which were inoculated intraperitoneally with S. aureus Smith or E. coli KC-14 and 2 hours later, treated by subcutaneous or oral application of SUN 4435.

[3] = tested on: E. coli KC-14; experiment: as above; assay type: in vivo, E. coli; ICR strain male mice
Experimental: as §1

[4] = tested on: E. coli KC-14; experiment: Therapeutic effect against experimental infection in mice (ED50); assay type: in vivo, E. coli; ICR strain male mice; details: Escherichia coli, 144 h, survival after 6 days, Probit method, read-out: ED50
Experimental: (§2) Out of the novel compound obtained according to this invention, SUN 4435 was selected to carry out a treatment experiment with infected animals. As an animal, there were employed ICR strain male mice (5-weeks aged, with an average body weight of 29.1 g), which were infected intraperitoneally with a test microorganism, S. aureus Smith or E. coli KC-14, and 24 hours later, treated by subcutaneous or oral application of SUN 4435 or SUN 5555. ED50 values were determined from the survival rates found after 6 days in accordance with the Probit method.

[5] = tested on: S. aureus Smith; experiment: as above; assay type: in vivo, S. aureus; ICR strain male mice; details: Staphylococcus aureus, po, 144 h, survival after 6 days, Probit method, read-out: ED50
Experimental: as §2

[6] = tested on: E. coli W3630/Rms213; experiment: Minimum inhibitory concentration (MIC), agar plate dilution method; assay type: cell-based; details: for MIC: Escherichia coli, W3630/RMS213, 18 h, read-out: minimum inhibitory concentration (MIC)
Experimental: (§3) With regard to the novel compounds obtained according to this invention and the compounds of Reference Examples, their minimum inhibitory concentrations (MIC) were determined by the agar plate dilution method in accordance with the MIC measuring standard method of The Chemotherapeutic Society of Japan, whereby 10^6 colony forming units were inoculated and the minimal concentration to inhibit the microbial growth after inclubation at 37° C. for 18 hours were determined, as shown as μg/ml in Table.

[7] = tested on: Pr. morganii IFO3848; experiment: as above; assay type: cell-based; details: 10^6 CFU inoculated, 37° C., 18 hours; for MIC: Morganella morganii, IFO3848
Experimental: as §3

[8] = tested on: K. pneumoniae PC1602; experiment: as above; assay type: cell-based; details: 10^6 CFU inoculated, 37° C., 18 hours; for MIC: Klebsiella pneumoniae, PC1602
Experimental: as §3

[9] = tested on: Ser. marcescens IMA 1136; experiment: as above; assay type: cell-based; details: 10^6 CFU inoculated, 37° C., 18 hours; for MIC: Serratia marcescens, IMA1136
Experimental: as §3

[10] = tested on: E. coli W3630/Rms212; experiment: as above; assay type: cell-based; details: for MIC: Escherichia coli, W3630/RMS212, 18 h, read-out: minimum inhibitory concentration (MIC)
Experimental: as §3

[11] = tested on: B. fragilis V-280-1; experiment: as above; assay type: cell-based; details: 10^6 CFU inoculated, 37° C., 18 hours; for MIC: Bacteroides fragilis, V2801
Experimental: as §3

[12] = tested on: S. aureus FAD209P JC-1; experiment: as above; assay type: cell-based; details: 10^6 CFU inoculated, 37° C., 18 hours; for MIC: Staphylococcus aureus, FAD209PJC1
Experimental: as §3

[13] = tested on: F. varium ATCC8501; experiment: as above; assay type: cell-based; details: 10^6 CFU inoculated, 37° C., 18 hours; for MIC: Fusobacterium varium, ATCC8501
Experimental: as §3

[14] = tested on: B. fragilis GM7000; experiment: as above; assay type: cell-based; details: 10^6 CFU inoculated, 37° C., 18 hours; for MIC: Bacteroides fragilis, GM7000
Experimental: as §3

[15] = tested on: M. luteus ATCC9341; experiment: as above; assay type: cell-based; details: 10^6 CFU inoculated, 37° C., 18 hours; for MIC: Micrococcus luteus, ATCC9341
Experimental: as §3

[16] = tested on: Pr. vulgaris GN7919; experiment: as above; assay type: cell-based; details: 10^6 CFU inoculated, 37° C., 18 hours; for MIC: Proteus vulgaris, GN7919
Experimental: as §3

[17] = tested on: Al. fecalis IFO13111; experiment: as above; assay type: cell-based; details: 10^6 CFU inoculated, 37° C., 18 hours
Experimental: as §3

[18] = tested on: Ent. cloacae 963; experiment: as above; assay type: cell-based; details: 10^6 CFU inoculated, 37° C., 18 hours; for MIC: Enterobacter cloacae, 963
Experimental: as §3

[19] = tested on: E. coli NIHI JC-2; experiment: as above; assay type: cell-based; details: 10^6 CFU inoculated, 37° C., 18 hours; for MIC: Escherichia coli, NIHIJC2
Experimental: as §3

[20] = 10^6 CFU inoculated, 37° C., 18 hours

Compound	MIC [6] [µg/mL]	MIC [7] [µg/mL]	MIC [8] [µg/mL]	MIC [9] [µg/mL]	MIC [10] [µg/mL]	MIC [11] [µg/mL]	MIC [12] [µg/mL]	MIC [13] [µg/mL]	MIC [14] [µg/mL]	MIC [15] [µg/mL]	MIC [16] [µg/mL]	MIC [17] [µg/mL]	MIC [18] [µg/mL]	MIC [19] [µg/mL]	also measured
C[C@@H](O)[C@H]1C(=O)N2C(C(=O)O)=C([C@H]3CCCO3)S[C@H]12 [SUN 4435, Potassium (1'R, 2"R, 5R, 6S)-6-(1'-hydroxyethyl)-2-(2"-tetrahydrofuranyl)penem-3-carboxylate]	0.78	6.25	0.1	3.13	1.56	0.2	0.05	0.2	< 0.025	0.05	0.39	0.78	3.13	0.78	LD50 ([1]; female mice): 456 mg/kg; LD50 ([1]; male mice): 480 mg/kg; survival ([2]; oral, 3.9 mg/kg, 3.6×10^5 CFU/head): three heads out of five survived; survival ([2]; oral, 9.6 mg/kg or more, 3.6×10^5 CFU/head): every heads were found to survive; survival ([2]; subcutaneous, 1.6 mg/kg or more, 5.7×10^5 CFU): every heads were found to survive; survival ([3]; oral, 12.5 mg/kg or more, 1.5×10^5 CFU/head): every heads were found to survive; survival ([3]; subcutaneous, 1.5 mg/kg, 3.1×10^5 CFU): three mice per five survived; survival ([3]; subcutaneous, 2.6 mg/kg or more, 3.1×10^5 CFU): every heads were found to survive; ED50 ([4]; KC14, po, oral): 11 mg/kg; ED50 ([4]; KC14, sc, subcutaneous): 1.5 mg/kg; ED50 [5]: 5.9 mg/kg
C[C@@H](O)[C@@H]1C(=O)N2C(C(=O)[O-])=C([C@H]3CCC(=O)O3)S[C@@H]12.[K+] [SUN 4325, Potassium (1'R, 2"R, 5S, 6R)-6-(1'-hydroxyethyl)-2[2"-(5"-oxo)oxolanyl]penem-3-carboxylate]	–	–	–	–	–	–	–	–	–	–	–	–	–	–	minimum inhibitory concentration (MIC) [6, 20]: 25 µg/mL; minimum inhibitory concentration (MIC) [7]: 50 µg/mL; minimum inhibitory concentration (MIC) [8]: 1.25 µg/mL; minimum inhibitory concentration (MIC) [9]: 50 µg/mL; minimum inhibitory concentration (MIC) [10, 20]: > 50 µg/mL; minimum inhibitory concentration (MIC) [11]: > 12.5 µg/mL; minimum inhibitory concentration (MIC) [12]: 3.13 µg/mL; minimum inhibitory concentration (MIC) [13]: > 12.5 µg/mL; minimum inhibitory concentration (MIC) [14]: 3.13 µg/mL; minimum inhibitory concentration (MIC) [15]: 1.56 µg/mL; minimum inhibitory concentration (MIC) [16]: > 50 µg/mL; minimum inhibitory concentration (MIC) [17]: 12.5 µg/mL; minimum inhibitory concentration (MIC) [18]: > 50 µg/mL; minimum inhibitory concentration (MIC) [19]: 25 µg/mL
C[C@@H](O)[C@H]1C(=O)N2C(C(=O)O)=C([C@@H]3CCCCO3)S[C@H]12 [SUN 4740, Potassium (1'R, 2"S, 5R, 6S)-6-(1'-hydroxyethyl)-2-(2"-tetrahydropyranyl)penem-3-carboxylate]	> 50	25	3.13	> 50	> 50	0.78	0.1	6.25	0.78	0.05	1.25	6.25	> 50	> 50	–
C[C@@H](O)[C@H]1C(=O)N2C(C(=O)O)=C([C@H]3COCCO3)S[C@H]12 [SUN 4771, Potassium (1'R, 2"R, 5R, 6S)-6-(1'-hydroxyethyl)-2-(2"-para-dioxanyl)penem-3-carboxylate]	0.73	6.25	0.05	6.25	1.56	0.05	0.05	0.78	0.025	0.1	0.78	0.78	3.13	1.56	–
C[C@@H](O)[C@H]1C(=O)N2C(C(=O)O)=C([C@@H]3CCC(=O)O3)S[C@H]12 [SUN 4262, Potassium (1'R, 2"S, 5R, 6S)-6-(1'-hydroxyethyl)-2-[2"-(5"-oxo)oxolanyl]penem-3-carboxylate]	3.13	12.5	1.56	12.5	3.13	0.2	0.2	3.13	0.2	0.2	3.13	3.13	12.5	3.13	–
C[C@@H](O)[C@H]1C(=O)N2C(C(=O)O)=C(C3COCCO3)S[C@H]12 (mixture of isomers) [SUN 4742, Potassium (1'R, 2"s, 5R, 6S and 1'R, 2"R, 5R, 6S)-6-(1'-hydroxyethyl)-2-(2"-paradioxanyl)penem-3-carboxylate]	0.78	6.25	0.1	6.25	3.13	0.05	0.05	0.78	0.05	0.1	0.78	0.78	6.25	1.56	–
C[C@@H](O)[C@H]1C(=O)N2C(C(=O)O)=C([C@H]3CCOC3)S[C@H]12 [SUN 4725, Potassium (1'R, 3"S, 5R, 6S)-6-(1'-hydroxyethyl)-2-(11-tetrahydrofuranyl)penem-3-carboxylate]	1.56	12.5	0.1	6.25	3.13	0.05	0.05	0.39	0.05	0.1	0.78	0.78	6.25	1.56	–
